In US20150216865A1, “METHODS OF TREATING A BRUTON'S TYROSINE KINASE DISEASE OR DISORDER” (Celgene Avilomics Research, Inc., priority 2012, published 2015):
Read-outs that look alike come from different tables or passages of the source.

Key:
[1] = test system: semi-established CIA Dba1 mice; assay: Semi-established collagen induced arthritis (CIA) model; type: in vivo, mouse; details: 3 mg/kg, 10 mg/kg or 30 mg/kg daily
Procedure: Semi-Established Collagen Induced Arthritis (CIA) Arthritis Model. Experiments were carried out at Bolder Biopath, Boulder, Colo. All experiments were carried out in compliance with regulations of the Institutional Animal Care and Use Committee and were conducted in accordance with principles and procedures dictated by the highest standards of humane animal care. Dba1 mice were injected at the base of the tail with 150 μL of Freund's Complete Adjuvant (Sigma) containing bovine type II collagen (Elastin Products, Owensville, Mo.) (2 mg/ml) on day 0 and again on day 21. Mice were randomized into treatment groups on study day 21, and treatment was initiated. Treatment continued daily (3 mg/kg, 10 mg/kg or 30 mg/kg QD at 24 hour intervals) through day 33, and mice were terminated on day 33 (animals 1-6) or day 34 (animals 7-12). Onset of arthritis occurred between study days 21 and 34. Clinical scores were assessed for each of the paws on study days 21-34 using the following scoring system: 0=normal, 1=one hind or fore paw joint affected or minimal diffuse erythema and swelling, 2=two hind or fore paw joints affected or mild diffuse erythema and swelling, 3=three hind or fore paw joints affected or moderate diffuse erythema and swelling, 4=marked diffuse erythema and swelling or =four digit joints affected, 5=severe diffuse erythema and severe swelling entire paw, unable to flex digits. Spleens and plasma were harvested at necropsy (day 33 for animals 1-6 and day 34 for animals 7-12) and paws were removed and fixed in formalin for histopathological analysis.

Btk = Btk (Homo sapiens, UniProt Q06187); assay: Clinical single dose study, Btk occupancy in enriched B cells (covalent probe ELISA); type: in vivo
Procedure: Btk Target Site Occupancy ELISA: An ELISA method for the detection of free uninhibited Btk in mouse, rat, dog, monkey, and human lysates was developed at Celgene Avilomics Research and a validation of this method in human B cell lysate was performed by a CLIA Certified laboratory (Cambridge Biomedical Laboratories, Boston, Mass.) The parameters that were assessed included: accuracy, linearity, dilution, precision (intra and inter-assay), stability, reference range, freeze-thaw cycles, reportable range, specificity, sensitivity, and carryover. […] Standards and samples were transferred to a streptavidin-coated 96-well ELISA plate and mixed while shaking for 1 h at room temperature. […] After wash, goat α-mouse-HRP (1:5000 dilution in PBS+0.05% Tween-20+0.5% BSA) was added and incubated for 1 h at room temperature. The ELISA was developed with addition of tetramethyl benzidine (TMB) followed by Stop Solution and read at OD 450 nm.
Clinical Study: A double blind, placebo-controlled, ascending single dose, randomized study in normal healthy human volunteers was conducted at a single clinical research unit in accordance with Declaration of Helsinki principles. Informed consent statements were obtained from all subjects prior to inclusion in the study. Subjects were admitted to the unit 1 day before dosing and discharged 96 h after dosing.
Isolation of Enriched B Lymphocyte Population from Human Healthy Volunteers: 21 mL of human whole blood was collected from each subject at each time point into BD® Vacutainer® CPT Cell Preparation Tubes containing sodium heparin. […] Isolated cells were harvested into a clean 50 mL conical tube that was pooled by subject. […] Cell suspensions were diluted in 1 mL of red blood cell lysis buffer for 3 minutes at room temperature. […] The lysates were stored frozen at ≦−70° C. until Btk target site occupancy analysis by ELISA.

Environmental stability = type: physicochemical
[2] = NOD mouse model of Sjogren's syndrome, bodyweight; type: in vivo
Procedure: Non-Obese Diabetic Mouse (NOD) Model of Sjogren's Syndrome. Male Non Obese Diabetic (NOD) mice from the KWS BioTest NOD colony and male BALB/c mice were randomly allocated to experimental groups and allowed to acclimatise for one week prior to the beginning of the study. From six weeks of age, animals were treated according to the administration schedule in Table 5, below. Each group consisted of n=12 animals. The administration volume was 15 ml/kg from 6-12 weeks of age. The administration volume was then decreased to 10 ml/kg from 13-20 weeks of age. The vehicle was distilled water pH 3.0-3.5 for Group 7. […] Animals were weighed at the start of the study (Day 0) and once per week until termination. […] Bodyweight data, expressed in grams, were analysed by two-way ANOVA followed by Dunnett's post-test for multiple comparisons to the vehicle-treated group and presented as mean bodyweights for each group (FIG. 12). Bodyweight data, expressed as a percentage of the initial bodyweight, were analysed by two-way ANOVA followed by Dunnett's post-test for multiple comparisons to the vehicle-treated group and presented as mean percentage of the initial bodyweight ±SEM (FIG. 13).

male NOD mice = assay: NOD mouse model, salivary gland secretion (pilocarpine-induced salivation assay); type: in vivo; details: all treatment groups
Procedure: Non-Obese Diabetic Mouse (NOD) Model of Sjogren's Syndrome. Male Non Obese Diabetic (NOD) mice from the KWS BioTest NOD colony and male BALB/c mice were randomly allocated to experimental groups and allowed to acclimatise for one week prior to the beginning of the study. From six weeks of age, animals were treated according to the administration schedule in Table 5, below. Each group consisted of n=12 animals. The administration volume was 15 ml/kg from 6-12 weeks of age. The administration volume was then decreased to 10 ml/kg from 13-20 weeks of age. The vehicle was distilled water pH 3.0-3.5 for Group 7. The vehicle was 0.5% methylcellulose and 0.25% Tween® 80 for all other groups.
Measurement of salivary gland secretion. Salivary gland secretion was measured every other week from six weeks of age. […] The weight of saliva collected was then measured using digital scales. […]
Salivary Gland Secretion. Salivary gland secretion was measured using the pilocarpine-induced salivation assay. Data are expressed as milligram of saliva per gram bodyweight. Data from this readout are indicative of inflammatory changes in the salivary glands, but significant changes are typically only seen from weeks 18 onwards in NOD mice. […] Data were analysed by two-way ANOVA followed by Dunnett's post-test for multiple comparisons to the vehicle-treated group (FIG. 16).

Btk, sequence (Q06187 whole entry): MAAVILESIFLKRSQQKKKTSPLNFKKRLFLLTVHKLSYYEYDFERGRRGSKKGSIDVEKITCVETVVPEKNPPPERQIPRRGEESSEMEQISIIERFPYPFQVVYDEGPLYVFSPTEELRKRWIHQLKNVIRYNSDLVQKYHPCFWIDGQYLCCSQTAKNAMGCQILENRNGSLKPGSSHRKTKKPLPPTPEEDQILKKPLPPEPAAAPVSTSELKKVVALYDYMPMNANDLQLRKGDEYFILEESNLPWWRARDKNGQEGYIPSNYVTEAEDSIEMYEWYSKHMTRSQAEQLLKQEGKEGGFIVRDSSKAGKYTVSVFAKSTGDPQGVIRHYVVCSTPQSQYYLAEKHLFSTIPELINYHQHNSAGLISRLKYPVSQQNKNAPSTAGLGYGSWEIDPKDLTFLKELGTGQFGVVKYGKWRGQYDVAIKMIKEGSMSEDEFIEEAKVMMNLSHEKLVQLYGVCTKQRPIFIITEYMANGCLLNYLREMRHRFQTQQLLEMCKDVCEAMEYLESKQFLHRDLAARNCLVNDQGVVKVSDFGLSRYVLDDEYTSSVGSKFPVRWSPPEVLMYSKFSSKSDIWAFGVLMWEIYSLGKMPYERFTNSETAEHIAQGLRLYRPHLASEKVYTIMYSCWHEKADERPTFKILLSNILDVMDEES

## C=CC(=O)Nc1cccc(Nc2nc(Nc3ccc(OCCOC)cc3)ncc2F)c1 [Compound 1 besylate, N-(3-(5-fluoro-2-(4-(2-methoxyethoxyl)phenylamino)pyrimidin-4-ylamino)phenyl)acrylamide besylate]
[1]
  effect on clinical parameters of developing type II collagen arthritis: significant beneficial effect
Btk; 2 mg/kg, 4 hours, read-out: average cohort Btk occupancy (maximal)
  receptor occupancy at 2 mg/kg: > 97%
Btk; 2.0 mg/kg, all 6 subjects
  time complete or near-complete Btk occupancy was sustained: 8 to 24 h
Btk; 2.0 mg/kg, within 4 hours, read-out: Btk occupancy, 5 of 6 subjects
  receptor occupancy at 2 mg/kg: > 98%
Btk; 2.0 mg/kg, within 4 hours, read-out: Btk occupancy, 6th subject
  receptor occupancy at 2 mg/kg: 84%
Btk; after single oral 2.0 mg/kg
  average Btk re-synthesis rate: 3.0 pg Btk/ug protein/hour
Btk; within 96 hours
  free Btk protein levels recovered, % of pre-dose values: ~75%
Environmental stability
  environmental instabilities (heat, acid, base): no environmental instabilities
[2]; 10 mg/kg SID, 8 weeks and 10 to 20 weeks of age
  bodyweight gain (% of initial bodyweight) vs vehicle-treated group: significant reduction in bodyweight gain
[2]; 10 mg/kg SID, at 13, 17, 19 and 20 weeks of age
  bodyweight (grams) vs vehicle-treated group: significant decrease in bodyweight
[2]; 30 mg/kg SID, 11 to 20 weeks of age
  bodyweight gain (% of initial bodyweight) vs vehicle-treated group: significant reduction in bodyweight gain
[2]; 30 mg/kg SID, from 14 to 20 weeks of age
  bodyweight (grams) vs vehicle-treated group: significant decrease in bodyweight
[2]; 50 mg/kg twice daily, 10 to 20 weeks of age
  bodyweight gain (% of initial bodyweight) vs vehicle-treated group: significant reduction in bodyweight gain
[2]; 50 mg/kg twice daily, from 11 to 20 weeks of age
  bodyweight (grams) vs vehicle-treated group: highly significant decrease in bodyweight
[2]; 100 mg/kg SID, 8 weeks and 10 to 20 weeks of age
  bodyweight gain (% of initial bodyweight) vs vehicle-treated group: significant reduction in bodyweight gain
[2]; ad libitum 0.16 mg/ml in drinking water, 8 to 20 weeks of age
  bodyweight gain (% of initial bodyweight) vs vehicle-treated group: highly significant reduction in bodyweight gain
[2]; ad libitum 0.16 mg/ml in drinking water, 8 weeks and 10 to 20 weeks of age
  bodyweight (grams) vs vehicle-treated group: highly significant decrease in bodyweight
Male NOD mice
  salivary gland secretion between groups: No significant differences
